Columns and labels:
adenylyl cyclase = experiment: cAMP generation by direct activation of adenylyl cyclase with forskolin; type: biochemical; conditions: membranes from HEK-GLP-1R cells, 5 min, 30°C, IBMX
Description: Generation of cAMP by cell membranes was determined based on previously published methods, [21]. Membranes were prepared from confluent cell monolayers grown in 80 cm^2 flasks. Cells were washed with 5 ml HBS (154 mM NaCl, 10 mM HEPES, pH 7.4, 37°C), detached using harvesting buffer (154 mM NaCl, 10 mM HEPES, 5.4 mM EDTA, pH 7.4, 37°C) and collected by centrifugation (200 g, 2 min, 4°C). The cell pellet was resuspended in 1 ml of homogenization buffer (10 mM HEPES, 10 mM EDTA, pH 7.4) and sonicated (Sonifier Ultrasonic Cell Disruptor; Branson, CT) at 30% of the maximal amplitude for 3×5 s at ∼30 s intervals before centrifugation (30,000 g, 4°C, 10 min). After removal of the supernatant, pellets were collected in resuspension buffer (10 mM HEPES, 0.1 mM EDTA, pH 7.4), protein concentration adjusted to 1 mg/ml and stored in aliquots at −80°C until assay. Generation of cAMP was determined in 100 µl containing: 10 mM HEPES, 12 mM MgCl2, 60 mM NaCl, 1.2 mM EDTA, 1.2% w/v BSA, 5% DMSO, 480 µM ATP, 2 mM IBMX, 10 µM GTP, 20 µg membrane and ligands as indicated. […]
(§1) The cAMP was extracted from either intact cell or membrane preparations using a method identical to that for extraction of Ins(1,4,5)P3 [22]. Levels of cAMP were then determined by a competitive radioreceptor assay using binding protein purified from bovine adrenal glands and related to cellular protein assessed by Bradford assay.

type 2 diabetes = conditions: exogenous GLP-1; ref [11]; cited from earlier work
Excerpt: GLP-1 is generated within intestinal L-cells by the a ...

GLP-1R [1] = conditions: intact GLP-1; ref [16], [18], [30], [40]; cited from earlier work
β2-adrenoceptors = experiment: cAMP accumulation via β2-adrenoceptors in HEK-GLP-1R cells; type: cell-based; conditions: isoproterenol 100 µM, IBMX, 5% DMSO
Description: Ligands or vehicle control (40 µl) were added and reactions terminated after the appropriate times by replacement of the aqueous phase with ice-cold 0.5 M trichloroacetic acid. […] Reactions were terminated as above.
as §1
All data are mean±/+s.e.m., n = 3–4, *** P<0.001 and ** P<0.01 by Bonferroni's multiple range test. For clarity only differences between ‘numerical’ and ‘co-addition’ conditions are shown.

[2] = molecular target: GLP-1 7-36 amide 7-36 (Homo sapiens) (UniProt P01275); conditions: cited from earlier work
Sequence of GLP-1 7-36 amide 7-36 (Homo sapiens) (P01275 7-36): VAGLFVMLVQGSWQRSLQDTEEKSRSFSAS

[3] = in vivo, cited from earlier work
Excerpt: (§2) Such proteolysis is thought to remove biological activity.

GLP-1R [4] = conditions: ref [9]; cited from earlier work
Excerpt: as §2

human GLP-1R [5] = molecular target: T1, human GLP-1R (Homo sapiens, UniProt P43220); experiment: cAMP generation by membranes from HEK-GLP-1R cells; type: biochemical; conditions: read-out: Emax as % of the GLP-1 7–36 amide response, cAMP (membranes); 5 min, 30°C, IBMX
T1 construct: expressed in transfected cells; vector pcDNA5/FRT
T1 sequence (P43220 24-463): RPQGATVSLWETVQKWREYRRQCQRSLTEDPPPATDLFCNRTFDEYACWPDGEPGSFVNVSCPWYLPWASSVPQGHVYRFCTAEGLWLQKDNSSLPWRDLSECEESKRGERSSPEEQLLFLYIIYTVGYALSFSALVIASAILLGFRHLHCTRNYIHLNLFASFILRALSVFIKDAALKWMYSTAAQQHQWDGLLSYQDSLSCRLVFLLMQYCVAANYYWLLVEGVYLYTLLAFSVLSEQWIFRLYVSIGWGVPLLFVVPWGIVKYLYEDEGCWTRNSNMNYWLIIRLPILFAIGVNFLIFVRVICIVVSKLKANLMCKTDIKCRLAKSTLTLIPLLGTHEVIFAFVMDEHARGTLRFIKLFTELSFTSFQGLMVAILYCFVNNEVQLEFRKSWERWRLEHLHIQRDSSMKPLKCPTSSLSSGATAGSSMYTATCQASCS
Description: as §1
(§3) Concentration-response curves were fitted using GraphPad Prism (GraphPad Software Inc., CA) using a standard four parameter logistic equation. All data are representative of n≥3 or are presented as mean+/±s.e.m., where n = 3 unless otherwise stated. Statistical analysis was by oneway ANOVA and where P<0.05, followed by Bonferroni's or Dunnett's multiple range test as indicated. Alternatively analysis was performed by Student's t-test. Where potency estimates are given these are pEC50 values (−log10 of the molar concentration giving 50% of the maximal response).

human GLP-1R [6] = molecular target: T1, human GLP-1R; experiment: ERK activation (phospho-ERK Western blot) in HEK-GLP-1R cells; type: cell-based; conditions: GLP-1 9–36 amide (1 µM) + compound 2 (0.1 µM to 1 µM), 5 min; n = 3
Description: as §3

human GLP-1R [7] = molecular target: T1, human GLP-1R; experiment: cAMP generation in intact HEK-GLP-1R cells; type: cell-based; conditions: IBMX; for EC50: pEC50 of the GLP-1 9–36 amide response (cAMP), 15 min, mean±s.e.m., n = 4
Description: (§4) HEK-Flp-In cells with stable recombinant expression of the human GLP-1R (HEK-GLP-1R) were cultured in DMEM with high glucose supplemented with 10% FBS, 100 µg/ml streptomycin and 100 units/ml penicillin sulphate. These cells were originally generated by transfection of HEK-Flp-In cells (Invitrogen: Paisley, U.K.) with pcDNA5/FRT containing the human GLP-1R. […] INS-1E cells were kindly provided by Prof. C.B. Wollheim of the University of Geneva, Switzerland [19]. These cells were used between passages 65–90 and cultured in RPMI media containing 11.1 mM glucose, 5% heat-inactivated FBS, 100 µg/ml streptomycin, 100 units/ml penicillin sulphate, 100 units/ml neomycin, 50 µM β-mercaptoethanol, 10 mM HEPES and 1 mM sodium pyruvate. All cells were cultured at 37°C in a 5% CO2 humidified atmosphere and passaged at confluence.
(§5) Confluent monolayers of HEK-GLP-1R cells cultured in 24-well plates pre-coated with poly-D-lysine (0.1% w/v) where washed twice with 0.5 ml Krebs-HEPES buffer (KHB, composition: 10 mM HEPES; 4.2 mM NaHCO3; 11.7 mM D-glucose; 1.18 mM MgSO4·7H2O; 1.18 mM KH2PO4; 4.69 mM KCl; 118 mM NaCl; 1.3 mM CaCl2·2H2O; pH 7.4) containing 0.1% (w/v) BSA (KHB-BSA) before incubation (10 min, 37°C) in 360 µl KHB-BSA containing 500 µM isobutylmethylxanthine (IBMX). Ligands or vehicle control (40 µl) were added and reactions terminated after the appropriate times by replacement of the aqueous phase with ice-cold 0.5 M trichloroacetic acid. INS-1E cells grown to confluence in 24-well plates were treated similarly with the exception that after washing in KHB, cells were incubated in 200 µl KHB-BSA containing 1.4 mM glucose without IBMX for 2 h followed by challenge with ligands (or vehicle) for 15 min at 37°C in 400 µl KHB-BSA, in the presence of 10 mM glucose and 500 µM IBMX. Reactions were terminated as above.
as §1, §3

[8] = molecular target: T2, GLP-1R (native, rat insulinoma cell line INS-1E) (Rattus norvegicus, UniProt P32301); experiment: cAMP generation in INS-1E cells; type: cell-based; conditions: INS-1E, read-out: Emax as % of that evoked by GLP-1 7–36 amide, cAMP (INS-1E), in the presence of compound 2
T2 construct: the rat insulinoma cell line, INS-1E, with native expression of the GLP-1R; endogenous in cells; host or cells: INS-1E rat insulinoma cells (gift of Prof. C.B. Wollheim)
T2 sequence (P32301 22-463): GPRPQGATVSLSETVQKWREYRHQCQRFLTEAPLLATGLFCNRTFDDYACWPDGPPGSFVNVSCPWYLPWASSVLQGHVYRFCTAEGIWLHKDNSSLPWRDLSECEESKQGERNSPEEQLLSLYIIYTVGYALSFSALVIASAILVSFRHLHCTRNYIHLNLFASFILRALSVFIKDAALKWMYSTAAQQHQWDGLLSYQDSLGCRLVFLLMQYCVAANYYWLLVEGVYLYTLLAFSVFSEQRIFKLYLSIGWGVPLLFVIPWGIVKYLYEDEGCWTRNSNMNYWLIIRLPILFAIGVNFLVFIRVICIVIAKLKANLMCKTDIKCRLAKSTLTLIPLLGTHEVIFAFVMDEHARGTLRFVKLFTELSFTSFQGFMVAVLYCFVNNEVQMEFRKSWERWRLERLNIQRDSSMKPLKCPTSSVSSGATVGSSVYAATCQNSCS
Description: as §4, §5, §1, §3

Sequence of GLP-1R (P43220 24-463): as the sequence (P43220 24-463) above

In the case of `C=C[C@@]1(C)CC(=O)[C@]2(O)[C@@]3(C)[C@@H](O)CCC(C)(C)[C@@H]3[C@H](O)[C@H](OC(C)=O)[C@@]2(C)O1` [forskolin], the “cAMP generation by forskolin (in words)” value (adenylyl cyclase) is reported as “robustly increased cAMP generation”.
In the case of Glucagon-like peptide-1 [GLP-1], the “effect on insulin secretion and hyperglycaemia in type 2 diabetes” value (type 2 diabetes) is listed as “potentiates glucose-dependent insulin secretion and can normalize hyperglycaemia in type 2 diabetes” and the “affinity at the GLP-1R” value (GLP-1R [1]) is listed as “nanomolar to sub-nanomolar affinity”.
In the case of `CC(C)NCC(O)c1ccc(O)c(O)c1` (stereo not shown) [isoproterenol], the “cAMP accumulation (in words)” value (β2-adrenoceptors) is reported as “stimulation of cAMP accumulation”.
For GLP-1R (from UniProt P43220), the Kd [2] is given as 1 nM.
In the case of “GLP-1 7–37: generated from proglucagon by prohormone convertase 1/3”, the fasting plasma concentration [3] is listed as under 10 pM, the “plasma concentration following a meal” value [3] is listed as about 10 pM and the “relative potency at the GLP-1R” value (GLP-1R [4]) is listed as “essentially equipotent”.
For `CC[C@H](C)[C@H](NC(=O)[C@H](Cc1ccccc1)NC(=O)[C@H](CCC(=O)O)NC(=O)[C@H](CCCCN)NC(=O)[C@H](C)NC(=O)[C@H](C)NC(=O)[C@H](CCC(N)=O)NC(=O)CNC(=O)[C@H](CCC(=O)O)NC(=O)[C@H](CC(C)C)NC(=O)[C@H](Cc1ccc(O)cc1)NC(=O)[C@H](CO)NC(=O)[C@H](CO)NC(=O)[C@@H](NC(=O)[C@H](CC(=O)O)NC(=O)[C@H](CO)NC(=O)[C@@H](NC(=O)[C@H](Cc1ccccc1)NC(=O)[C@@H](NC(=O)CNC(=O)[C@@H](N)CCC(=O)O)[C@@H](C)O)[C@@H](C)O)C(C)C)C(=O)N[C@@H](C)C(=O)N[C@@H](Cc1c[nH]c2ccccc12)C(=O)N[C@@H](CC(C)C)C(=O)N[C@H](C(=O)N[C@@H](CCCCN)C(=O)NCC(=O)N[C@@H](CCCNC(=N)N)C(N)=O)C(C)C` [GLP-1 9–36 amide, Glucagon-like peptide-1 9–36 amide], the Emax (human GLP-1R [5]) is given as 23%, the “ERK activation in excess of the sum of the responses to the ligands alone” value (human GLP-1R [6]) is given as 45–69% and the “peak plasma level, oral glucose tolerance test” value ([3]; po) is given as about 60 pM. For the same compound, the EC50 (human GLP-1R [7]; compound 2: 0 µM) was 309 nM, the EC50 (human GLP-1R [7]; compound 2: 0.03 µM) was 85.1 nM and the EC50 (human GLP-1R [7]; compound 2: 0.1 µM, ** P<0.01 versus 0 µM compound 2) was 32.4 nM. It also gave an EC50 (human GLP-1R [7]; compound 2: 0.3 µM, *** P<0.001 versus 0 µM compound 2) of 8.91 nM, an EC50 (human GLP-1R [7]; compound 2: 1.0 µM, *** P<0.001 versus 0 µM compound 2) of 5.25 nM and an EC50 (human GLP-1R [7]; compound 2: 3.0 µM, *** P<0.001 versus 0 µM compound 2) of 3.89 nM. The Emax (human GLP-1R [7]; read-out: Emax as % of the GLP-1 7–36 amide response, cAMP, no pretreatment, 15 min challenge) was 18% and the Emax [8] was about 50%.
